Experimental data published in patent publication US5756121A, “Antibiotic formulation and use for drug resistant infections” (NeXstar Pharmaceuticals, Inc., priority 1995, dated 1998).
Several values for one entry are separate records, joined by “and”; a condition that tells them apart may be missing. Equal values may be shown once.

Columns and labels:
in vivo = experiment: in vivo; design: species or system mouse (C57B1/6); settings: mouse
Description: Amikacin content was measured in mouse (C57B1/6, females 2-3 months old) plasma after injection (i.v.) of free amikacin or liposomal amikacin (100 mg/kg). Liposomal amikacin was prepared as described in Example 2. Blood samples were obtained at various time intervals. The samples were collected by removing 100 microliters of blood, retroorbitally, from nonanesthetized mice. The samples were collected in heparinized capillary pipets which were plugged with modeling clay. The samples were centrifuged at 3250 rpm (20 cm rotor) for 10 minutes. The samples were analyzed using a radioimmunoassay (Diagnostic Products). The liposomal amikacin formulation contained liposomes with an average size of 43.6 nm (median diameter). The amikacin concentration was 10.09 mg/ml and the total lipid concentration was 56.8 mg/ml (drug to lipid ratio […]).

[1] = tested on: M. tuberculosis, drug susceptible strain H37RV; experiment: Activity against drug susceptible TB in infected human monocyte-derived macrophages; type: cell-based, Mycobacterium tuberculosis (in human macrophages); settings: for CFU: duplicate values
[2] = mice, 150 mg/kg; known in the art; cited from earlier work
Pseudomonas aeruginosa = experiment: Efficacy and toxicity in Pseudomonas infected mice (mortality); type: in vivo, Pseudomonas aeruginosa (clinical isolate) in CF-1 mice
Description: The efficacy and toxicity of liposomal amikacin in Pseudomonas infected mice was tested. CF-1 mice were used (females, 6-8 weeks old). The mice were obtained from Jackson Labs. A clinical isolate of Pseudomonas aeruginosa was obtained on a Mueller Hinton/MacConkey blood agar plate. The organisms were transferred to a Mueller Hinton plate and grown for 24 hours. Colonies were transferred to saline and grown for 48 hours. The samples were frozen in saline containing 15% fetal calf serum at 1×10^8 organisms/ml (MacFarland Standard). The colonies were stored at -70° C. The colonies were thawed and grown in a Mueller Hinton plate for 24 hours. The bacteria were adjusted to 8×10^6 organisms/ml in saline containing talc (62.5 mg/ml) and 1 ml was injected intraperitoneal. A culture of inoculum on MH agar for 24 hours determined that approximately 7×10^6 cfu were delivered per mouse. Liposomal amikacin and empty liposomes were prepared as set out in Example 2. […] The lipid concentration was 95.31 mg/ml and the amikacin concentration was 23.54 mg/ml (0.25 drug/lipid ratio). The pH of the solution containing the formulation was 7.31. […] The concentration of the free amikacin solution was 23.54 mg/ml. The pH of the solution containing the liposomes was 7.33.
Mice were treated with 40 mg/kg (drug per body-weight), 80 mg/kg, 120 mg/kg and 240 mg/kg of liposomal amikacin. Mice were also treated with 40 mg/kg, 80 mg/kg, and 120 mg/kg of free amikacin. The drugs were administered intravenously in the caudal vein. Two doses were given; one at four hours after infection and one at twenty-four hours after infection.

MAC (101, type 1) = experiment: Treatment of MAC-infected beige mice, first experiment (organism burden in spleen, liver, lung); type: in vivo
Description: The testing of liposome encapsulated amikacin for the treatment of MAC was performed using a murine model. Beige mice (C57B1/6bg^j /bg^j) were infected with MAC (101, type 1). The mice were infected by injection of 1×10^7 Colony Forming Units (cfu) in the mouse tail vein (i.v.). Three experiments were performed. In the first experiment, 40, 80 and 120 milligrams of amikacin (liposomal and free) per kilogram of mouse body-weight was given i.v. daily for 5 days, beginning 7 days after infection. The animals were sacrificed 5 days after treatment was completed and the liver, lung and spleen tissue were plated. Quantitation of organisms in liver, spleen and lung tissue was performed. The cfu were determined by growth on Middlebrook 7h11 agar plates. Untreated and empty liposomes were used as controls.
The liposomes were prepared as in Example 1. This experiment was performed in two identical parts. The liposomes in the first part were of an average size of 49.8 nm and the average size of the liposomes in the second part were 73.7 nm (mean diameter). The amikacin concentration was either 15.0 mg/ml or 13.21 mg/ml and the total lipid concentration was either 121 mg/ml or 55.7 mg/ml respectively (drug to lipid ratios: 0.123, 0.24). Free drug for all experiments was prepared in the same buffer that the liposomal formulations were contained in.

NCC[C@H](O)C(=O)N[C@@H]1C[C@H](N)[C@@H](O[C@H]2O[C@H](CN)[C@@H](O)[C@H](O)[C@H]2O)[C@H](O)[C@H]1O[C@H]1O[C@H](CO)[C@@H](O)[C@H](N)[C@H]1O [amikacin]
Average plasma concentration of amikacin (in vivo; 100 mg/kg i.v., 6 hours): none detected | concentration at 5 min (in vivo; in vivo, iv, 100 mg/kg): 406 µg/mL | concentration at 0.25 h (in vivo; in vivo, iv, 100 mg/kg): 106 µg/mL | concentration at 2 h (in vivo; in vivo, iv, 100 mg/kg): 65 µg/mL | inhibition / killing of drug susceptible bacteria (in words) ([1]; 1 μg/ml): inhibited the growth of the bacteria | CFU ([1]; 1 μg/ml, day 4): 50 1 × 10^3 cfu per monolayer and 60 1 × 10^3 cfu per monolayer | CFU ([1]; 1 μg/ml, day 7): 900 1 × 10^3 cfu per monolayer and 800 1 × 10^3 cfu per monolayer | inhibition / killing of drug susceptible bacteria (in words) ([1]; 2 μg/ml, day 4): inhibition | CFU ([1]; 2 μg/ml, day 4): 20 1 × 10^3 cfu per monolayer | CFU ([1]; 2 μg/ml, day 7): 40 1 × 10^3 cfu per monolayer and 50 1 × 10^3 cfu per monolayer | inhibition / killing of drug susceptible bacteria (in words) ([1]; 4 μg/ml, day 4): killing at day 4 | CFU ([1]; 4 μg/ml, day 4): 4 1 × 10^3 cfu per monolayer and 5 1 × 10^3 cfu per monolayer | CFU ([1]; 4 μg/ml, day 7): 1.5 1 × 10^3 cfu per monolayer and 3 1 × 10^3 cfu per monolayer | lethality (in words) [2]: will kill many of the mice injected | Mortality #died/#tested (Pseudomonas aeruginosa; 40 mg/kg i.v., two doses (4 h and 24 h after infection), 24 hours post infection): 1/4 | Mortality #died/#tested (Pseudomonas aeruginosa; 40 mg/kg i.v., two doses, 30 hours post infection): 1/4 | Mortality #died/#tested (Pseudomonas aeruginosa; 40 mg/kg i.v., two doses, 48 hours post infection): 1/4 | Mortality #died/#tested (Pseudomonas aeruginosa; 40 mg/kg i.v., two doses, 72 hours post infection): 1/4 | Mortality #died/#tested (Pseudomonas aeruginosa; 80 mg/kg i.v., two doses (4 h and 24 h after infection), 24 hours post infection): 0/6 | Mortality #died/#tested (Pseudomonas aeruginosa; 80 mg/kg i.v., two doses, 30 hours post infection): 0/6 | Mortality #died/#tested (Pseudomonas aeruginosa; 80 mg/kg i.v., two doses, 48 hours post infection): 0/6 | Mortality #died/#tested (Pseudomonas aeruginosa; 80 mg/kg i.v., two doses, 72 hours post infection): 0/6 | Mortality #died/#tested (Pseudomonas aeruginosa; 120 mg/kg i.v., two doses (4 h and 24 h after infection), 24 hours post infection): 0/6 | Mortality #died/#tested (Pseudomonas aeruginosa; 120 mg/kg i.v., two doses, 30 hours post infection): 0/6 | Mortality #died/#tested (Pseudomonas aeruginosa; 120 mg/kg i.v., two doses, 48 hours post infection): 0/6 | Mortality #died/#tested (Pseudomonas aeruginosa; 120 mg/kg i.v., two doses, 72 hours post infection): 0/6 | Lung log cfu/gram (MAC (101, type 1); 40 mg/kg i.v. daily for 5 days): 6.16 log | Lung log cfu/gram (MAC (101, type 1); 80 mg/kg i.v. daily for 5 days): 6.11 log | Lung log cfu/gram (MAC (101, type 1); 120 mg/kg i.v. daily for 5 days): 6.00 log
